Results reported in patent US10029982B2, “Light absorptive compound, polymer composition containing the compound, polymer film, and cured layer” (Sumitomo Chemical Company, Limited, priority 2015, dated 2018).

Columns and labels:
[1] = Absorption measurement of the compound with spectrophotometer UV-3150; assay type: physicochemical; conditions: in 2-butanone
From the text: The compound (I) preferably satisfies the following formula (a). ε(420)/ε(400)≤0.4 (a)
The smaller value offers a transparent compound with less yellowness.
Also, the compound (I) preferably satisfies the following formulae (b) and (c) in addition to the formula (a). λmax<420 nm (b) ε(400)≥40 (c)
In the formula (b), λmax denotes maximum absorption wavelength of the compound (I). In the formula (c), ε(400) denotes gram absorption coefficient at a wavelength of 400 nm, and the unit of gram absorption coefficient is defined by L/(g·cm). […]
A compound UVA-R01 was synthesized in accordance with the method described in Patent Literature (DE101 09 243 A1). Refinement was performed by subjecting the solution to column chromatography (silica gel). When absorption maximum wavelength (λmax) was measured by using a spectrophotometer UV-3150 (manufactured by SHIMADZU CORPORATION), the results were such that λmax=389 nm (in 2-butanone), ε(400) was 146 L/(g·cm), and ε(420)/ε(400) was 0.0122. Then, the following peaks were observed through ^1H-NMR analysis, so that it was confirmed that the compound UVA-R01 was produced.

[2] = Solubility test in various solvents; assay type: physicochemical; conditions: room temperature 25±3° C., visually confirmed 60 minutes after preparation; for Solubility in various solvents MEK: 2-butanone; for Solubility in various solvents IPA: 2-propanol; for Solubility in various solvents CHF: chloroform; for Solubility in various solvents EAC: ethyl acetate; for Solubility in various solvents PGMEA: propylene glycol monomethyl ether acetate; for Solubility in various solvents TOL: toluene
Procedure: The compound UVA-01 (50 mg) obtained by the method described in Synthesis Example 1 was mixed with 450 mg of the solvent described below to prepare a 10% by mass solution. […] Also, 50 mg of UVA-01 was mixed with 950 mg of the solvent described below to prepare a 5% by mass solution, and the same solubility test was performed. The solubility of the compound UVA-01 was visually confirmed in 60 minutes after preparation of each solution. Incidentally, the criteria for evaluation of the test results are as follows.
A: soluble by 10% by mass or more
B: soluble by 5% by mass or more and less than 10% by mass
C: soluble by less than 5% by mass
2-butanone (manufactured by KANTO CHEMICAL CO., INC., hereinafter abbreviated as MEK) 2-propanol (manufactured by NACALAI TESQUE, INC., hereinafter abbreviated as IPA) toluene (manufactured by NACALAI TESQUE, INC., hereinafter abbreviated as TOL) ethyl acetate (manufactured by NACALAI TESQUE, INC., hereinafter abbreviated as EAC) chloroform (manufactured by KANTO CHEMICAL CO., INC., hereinafter abbreviated as CHF) propylene glycol monomethyl ether acetate (manufactured by Tokyo Chemical Industry Co., Ltd., hereinafter abbreviated as PGMEA) The solubility test was performed in the same manner as in Example 1 except for replacing UVA-01 with UVA-02 or UVA-03.
The solubility test was performed in the same manner as in Example 1 except for replacing UVA-01 with UVA-R01.

SMILES | absorption maximum wavelength (λmax) [1] [nm] | ε(400), gram absorption coefficient at a wavelength of 400 nm [1] [L/g/cm] | ε(420)/ε(400) [1] | Solubility in various solvents MEK [2] | Solubility in various solvents IPA [2] | Solubility in various solvents CHF [2] | Solubility in various solvents EAC [2] | Solubility in various solvents PGMEA [2] | Solubility in various solvents TOL [2]
COCCOCCOCCOC(=O)/C(C#N)=C\C=C1/CCCN1C [UVA-02] | 388 | 95.2 | 0.0161 | A (soluble by 10% by mass or more) | A (soluble by 10% by mass or more) | A (soluble by 10% by mass or more) | A (soluble by 10% by mass or more) | A (soluble by 10% by mass or more) | A (soluble by 10% by mass or more)
CCOC(=O)/C(C#N)=C\C=C1/CCCN1C [UVA-R01, reference compound] | 389 | 146 | 0.0122 | C (soluble by less than 5% by mass) | C (soluble by less than 5% by mass) | C (soluble by less than 5% by mass) | C (soluble by less than 5% by mass) | C (soluble by less than 5% by mass) | C (soluble by less than 5% by mass)
CCOCCOC(=O)/C(C#N)=C\C=C1/CCCN1C [UVA-01] | 389 | 125 | 0.0153 | A (soluble by 10% by mass or more) | A (soluble by 10% by mass or more) | A (soluble by 10% by mass or more) | A (soluble by 10% by mass or more) | A (soluble by 10% by mass or more) | A (soluble by 10% by mass or more)
CCCCC(CC)COC(=O)/C(C#N)=C\C=C1/CCCN1C (stereo not drawn) [UVA-03] | 389 | 108 | 0.0132 | A (soluble by 10% by mass or more) | A (soluble by 10% by mass or more) | A (soluble by 10% by mass or more) | A (soluble by 10% by mass or more) | B (soluble by 5% by mass or more and less than 10% by mass) | A (soluble by 10% by mass or more)
